# According to paper PMC13170813, “Agmatine coumaroyltransferase gene on the short arm of chromosome 2H is involved in hordatine biosynthesis in barley” (Plant Biotechnology, 2026):
# System: T1, HvACT-2HS1
# T1 construct: full-length, 467 residues; pET28a (NdeI) N-terminal His-tag removed with thrombin; E. coli Rosetta 2 (DE3); 57 kDa SDS-PAGE, 51 kDa native, monomer
# Experiment: HPLC of product ([…] nm), Michaelis-Menten non-linear fit
# Type: biochemical, Hordeum vulgare subsp. vulgare
# Settings: 100 mM Tris-HCl pH 8.5, 40°C
Km (100 µM p-coumaroyl-CoA) [µM],Km (100 µM agmatine) [µM],Structure (SMILES)
30000,–,NCCCCN [Putrescine]
–,6.6 ± 2.2,COc1cc(/C=C/C(=O)SCCNC(=O)CCNC(=O)[C@H](O)C(C)(C)COP(=O)(O)OP(=O)(O)OC[C@H]2O[C@@H](n3cnc4c(N)ncnc43)[C@H](O)[C@@H]2OP(=O)(O)O)ccc1O [Feruloyl-CoA]
30 ± 1.3,–,N=C(N)NCCCCN [Agmatine]
–,12 ± 1.3,CC(C)(COP(=O)(O)OP(=O)(O)OC[C@H]1O[C@@H](n2cnc3c(N)ncnc32)[C@H](O)[C@@H]1OP(=O)(O)O)[C@@H](O)C(=O)NCCC(=O)NCCSC(=O)/C=C/c1ccc(O)cc1 [p-Coumaroyl-CoA]
